Experimental data taken from PubChem BioAssay AID1963968 (Molecular Pharmacology Branch, DTP, NCI, 2024).
pIC50: −log10 of the molar value.

Test system: 945468-187-T-J3-PDC spheroids with HUVEC/MSC, viability
Assay: Anticancer human tumor 945468-187-T-J3-PDC patient-derived rectal carcinoma cell line growth inhibition [PI3K]
Details: for viability, T/C: stronger effect = lower value
Procedure, shortened: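 We assembled tumor spheroids that included a stromal compartment of HUVEC and MSCs, then exposed them to targeted agents alone and together with PI3K pathway inhibitors. Concentration series descended by half-log from clinically achievable Cmax levels. Viability served as the endpoint.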

[1] = curve of first compound, second compound 0.0316 µM
[2] = curve of first compound, second compound 0.1 µM
[3] = curve of first compound, second compound 0.316 µM
[4] = curve of first compound, second compound 1 µM
[5] = second compound 0.0316 µM, first compound 0.0316 µM
[6] = second compound 0.0316 µM, first compound 0.1 µM
[7] = second compound 0.0316 µM, first compound 0.316 µM
[8] = second compound 0.0316 µM, first compound 1 µM
[9] = second compound 0.0316 µM, first compound 3.16 µM
[10] = second compound 0.0316 µM, first compound 10 µM
[11] = second compound 0.1 µM, first compound 0.0316 µM
[12] = second compound 0.1 µM, first compound 0.1 µM
[13] = second compound 0.1 µM, first compound 0.316 µM
[14] = second compound 0.1 µM, first compound 1 µM
[15] = second compound 0.1 µM, first compound 3.16 µM
[16] = second compound 0.1 µM, first compound 10 µM
[17] = second compound 0.316 µM, first compound 0.0316 µM
[18] = second compound 0.316 µM, first compound 0.1 µM
[19] = second compound 0.316 µM, first compound 0.316 µM
[20] = second compound 0.316 µM, first compound 1 µM
[21] = second compound 0.316 µM, first compound 3.16 µM
[22] = second compound 0.316 µM, first compound 10 µM
[23] = second compound 1 µM, first compound 0.0316 µM
[24] = second compound 1 µM, first compound 0.1 µM
[25] = second compound 1 µM, first compound 0.316 µM
[26] = second compound 1 µM, first compound 1 µM
[27] = second compound 1 µM, first compound 3.16 µM
[28] = second compound 1 µM, first compound 10 µM
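Also: spheroids exposed to agents for 7 days before viability read.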
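For viability, T/C in this document: 100% = DMSO vehicle control viability.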

For Cc1nc(NC(=O)N2CCCC2C(N)=O)sc1-c1ccnc(C(C)(C)C(F)(F)F)c1 (stereo unspecified), the viability, T/C (compound 0.0316 µM) was 90% [middle of 7 runs], the viability, T/C (compound 0.1 µM) was 96% [middle of 8 runs] and the viability, T/C (compound 0.316 µM) was 99.1% [middle of 8 runs]. The viability, T/C (compound 1 µM) was 103% [middle of 8 runs], the viability, T/C (compound 3.16 µM) was 106% [middle of 8 runs] and the viability, T/C (compound 10 µM) was 62.1% [middle of 8 runs]. For the same molecule, the pIC50 (compound alone, run of 06/12/2023) was < 5.00.

CC1(C)CCC(CN2CCN(c3ccc(C(=O)NS(=O)(=O)c4ccc(NCC5CCOCC5)c([N+](=O)[O-])c4)c(Oc4cnc5[nH]ccc5c4)c3)CC2)=C(c2ccc(Cl)cc2)C1 + CC(Nc1ncnc2nc[nH]c12)c1cc2cccc(Cl)c2c(=O)n1-c1ccccc1 was tested, and the pIC50 [1] was < 5.00, the pIC50 [2] was < 5.00 and the pIC50 [3] was < 5.00. The pIC50 [4] was < 5.00, the pIC50 (curve of first compound, second compound 3.16 µM) was < 5.00 and the pIC50 (curve of first compound, second compound 10 µM) was < 5.00. The viability, T/C [5] was 99.2%, the viability, T/C [6] was 91.9% and the viability, T/C [7] was 95.7%. It also gave a viability, T/C [8] of 96%, a viability, T/C [9] of 117% and a viability, T/C [10] of 114%. It also gave a viability, T/C [11] of 94.4%, a viability, T/C [12] of 95.8% and a viability, T/C [13] of 98.7%. It also gave a viability, T/C [14] of 102%, a viability, T/C [15] of 105% and a viability, T/C [16] of 106%. The viability, T/C [17] was 111%, the viability, T/C [18] was 106% and the viability, T/C [19] was 104%. The viability, T/C [20] was 118%, the viability, T/C [21] was 113% and the viability, T/C [22] was 104%. The viability, T/C [23] was 100%, the viability, T/C [24] was 94% and the viability, T/C [25] was 92.6%. It also gave a viability, T/C [26] of 98.6%, a viability, T/C [27] of 110% and a viability, T/C [28] of 110%. For the same molecule, the viability, T/C (second compound 3.16 µM, first compound 0.0316 µM) was 100%, the viability, T/C (second compound 3.16 µM, first compound 0.1 µM) was 107% and the viability, T/C (second compound 3.16 µM, first compound 0.316 µM) was 95.4%. For the same molecule, the viability, T/C (second compound 3.16 µM, first compound 1 µM) was 109%, the viability, T/C (second compound 3.16 µM, first compound 3.16 µM) was 115% and the viability, T/C (second compound 3.16 µM, first compound 10 µM) was 98.2%. It also gave a viability, T/C (second compound 10 µM, first compound 0.0316 µM) of 105%, a viability, T/C (second compound 10 µM, first compound 0.1 µM) of 95.6% and a viability, T/C (second compound 10 µM, first compound 0.316 µM) of 97.3%. For the same molecule, the viability, T/C (second compound 10 µM, first compound 1 µM) was 103%, the viability, T/C (second compound 10 µM, first compound 3.16 µM) was 120% and the viability, T/C (second compound 10 µM, first compound 10 µM) was 93.9%.

Work on CCCS(=O)(=O)Nc1ccc(F)c(C(=O)c2c[nH]c3ncc(-c4ccc(Cl)cc4)cc23)c1F + CC(Nc1ccc2c(c1)OCCn1cc(N3C(=O)OCC3C(F)F)nc1-2)C(N)=O yielded a pIC50 (curve of first compound, second compound 0.00316 µM) of 5.20, a pIC50 (curve of first compound, second compound 0.01 µM) of 5.19 and a pIC50 [1] of 5.18. For the same molecule, the pIC50 [2] was 5.15, the pIC50 [3] was 5.20 and the pIC50 [4] was 5.49. The viability, T/C (second compound 0.00316 µM, first compound 0.0316 µM) was 105%, the viability, T/C (second compound 0.00316 µM, first compound 0.1 µM) was 96.9% and the viability, T/C (second compound 0.00316 µM, first compound 0.316 µM) was 93%. For the same molecule, the viability, T/C (second compound 0.00316 µM, first compound 1 µM) was 104%, the viability, T/C (second compound 0.00316 µM, first compound 3.16 µM) was 97.1% and the viability, T/C (second compound 0.00316 µM, first compound 10 µM) was 17.3%. The viability, T/C (second compound 0.01 µM, first compound 0.0316 µM) was 105%, the viability, T/C (second compound 0.01 µM, first compound 0.1 µM) was 88.7% and the viability, T/C (second compound 0.01 µM, first compound 0.316 µM) was 104%. For the same molecule, the viability, T/C (second compound 0.01 µM, first compound 1 µM) was 102%, the viability, T/C (second compound 0.01 µM, first compound 3.16 µM) was 110% and the viability, T/C (second compound 0.01 µM, first compound 10 µM) was 17.3%. The viability, T/C [5] was 98.5%, the viability, T/C [6] was 108% and the viability, T/C [7] was 97.7%. The viability, T/C [8] was 94.3%, the viability, T/C [9] was 100% and the viability, T/C [10] was 22.2%. It also gave a viability, T/C [11] of 101%, a viability, T/C [12] of 102% and a viability, T/C [13] of 104%. The viability, T/C [14] was 99.7%, the viability, T/C [15] was 121% and the viability, T/C [16] was 27%. It also gave a viability, T/C [17] of 98.7%, a viability, T/C [18] of 108% and a viability, T/C [19] of 98.5%. For the same molecule, the viability, T/C [20] was 114%, the viability, T/C [21] was 97.6% and the viability, T/C [22] was 18.9%. For the same molecule, the viability, T/C [23] was 66%, the viability, T/C [24] was 66.6% and the viability, T/C [25] was 74.9%. The viability, T/C [26] was 69.4%, the viability, T/C [27] was 51.1% and the viability, T/C [28] was 13.9%.
